Read-outs that look alike come from different tables or passages of the source.

The test system of test [1] is SKBR3 cells. The experiment in a line: SKBR3 Cell Viability Assay (CellTiter Glo). The class given is cell-based. Conditions: CellTiter Glo luminescence, read-out: MCL-1 CV SKBR3 EC50. As to the method:
SKBR3 Cell Viability Assay Materials
SKBR3 Cells (ATCC HTB-30) were obtained from ATCC (Manassas, Va.) and cultured in McCoy 5A's medium (ATCC 30-2007)+10% fetal bovine serum (SH30071.03, HyClone, Pittsburgh, Pa.) plus 1× Penicillin-Streptomycin L-glutamine (Corning 30-009-C1, Corning, N.Y.)).
The cell viability assay was conducted in a 384-well tissue culture plate (Grenier 781086, Monroe, N.C.) in a total volume of 70 μL. Test compounds were prepared in 1,000×, serially diluted, and pre-spotted into 384-well tissue culture plate by Echo 555 Liquid Handler (Labcyte Inc., San Jose, Calif.). Seventy μl of 6,000 SKBR3 cells were dispensed into each well of the plate and incubated at 37° C. with 5% CO2 for 72 hours. At the end of incubation, 2× CellTiter Glo (CTG) reagents (1 part buffer with 2 parts substrate) (Promega, Madison, Wis.) were prepared, and the plate and the reagent were equilibrated to room temperature for 30 minutes. CTG reagent was added to each plate by Biomek FX at 20 μL/well with 5 times pipetting and mixing to induce cell lysis. Luminescence was read by Envision multimode reader (PerkinElmer). […] Percent inhibition was calculated as followed: % Inhibition=100%*(Well−Neg)/(Pos−Neg) Neg, negative control, DMSO Pos, positive control, 10 μM Puromycin
A general note: In ATP-based viability assays light output follows the ATP content of the culture.

Test [2] concerns the target MCL-1/Bim interaction (recombinant human MCL-1 protein, residues 171-327; biotinylated human Bim peptide, residues 51-76) (Homo sapiens (Human), UniProt Q07820). The experiment in a line: MCL-1/Bim Binding AlphaLISA Assay. Conditions: 0.0625 nM 6xHis-Mcl-1 (171-327), 0.0625 nM biotinylated-Bim peptide. As to the method: MCL-1/Bim Binding AlphaLISA Assay.
Inhibition of the MCL-1 and Bim interaction was measured in the following AlphaLISA assay.
Recombinant human MCL-1 protein (C-terminal 6×His Tagged Mcl-1 containing residues 171-327) was generated at Gilead Sciences, Inc. (Foster City, Calif.). A biotinylated peptide derived from human Bim (residues 51-76) was purchased from CPC Scientific (Sunnyvale, Calif.). (CPC 834113). AlphaLISA anti-6His-acceptor beads (AL128R), AlphaScreen Streptavidin donor beads (6760002B), and Proxiplate-384 Plus (6008289) were purchased from PerkinElmer.
The AlphaLISA assay was performed in a 384-well Proxiplate in a total volume of […]. The reaction mixture contained 0.0625 nM 6×His-Mcl-1 (171-327), 0.0625 nM biotinylated-Bim peptide, 10 μg/mL AlphaLISA anti-6×His-AlphaLISA acceptor beads, […] AlphaScreen streptavidin donor beads, and serially diluted test compounds in the binding buffer (20 mM Hepes, pH 7.5 (Teknova H1035); 150 mM NaCl (Promega V4221); 0.002% Brij 35 (Thermo Scientific 20150); 1 mM Dithiothreitol (DTT) Solution (Affymetrix 70726); 0.01% BSA (BioLabs B9000S)). 1,000×test compounds were pre-spotted onto 384-well Proxiplate (Labcyte Echo) by Echo 555 Liquid Handler (Labcyte Inc., San Jose, Calif.) followed by incubation of 5 μl Mcl-1(171-327) for 1 hour. Then 5 μL Bim (51-76) was added and incubated for 2 hours. Five μL AlphaLISA anti-6His-AlphaLISA acceptor beads were then added for 1 hour followed by addition of 5 μL AlphaScreen streptavidin donor beads for 1 hour. The reaction plates were then read on an Envision multimode reader (PerkinElmer) using AlphaScreen settings. […] Percent inhibition was calculated as shown below: % Inhibition=100%*(Well−Neg)/(Pos−Neg) Neg: negative control, DMSO Pos: positive control, no Mcl-1 protein, no biotinylated-Bim peptide
On the technique in general: Alpha assays give light when donor and acceptor beads are brought close together.

MCL-1/Bim interaction (recombinant human MCL-1 protein, residues 171-327; biotinylated human Bim peptide, residues 51-76), sequence (Q07820 171-327): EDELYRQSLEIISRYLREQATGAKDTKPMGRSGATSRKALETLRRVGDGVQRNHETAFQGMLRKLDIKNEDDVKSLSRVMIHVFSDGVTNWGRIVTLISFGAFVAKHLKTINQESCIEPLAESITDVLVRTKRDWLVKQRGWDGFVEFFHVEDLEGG

Regarding `CCC(=O)NS1(=O)=NC(=O)c2ccc3c(c2)N(C[C@@H]2CC[C@H]2[C@@H](OC)/C=C/CCC1)C[C@@]1(CCCc2cc(Cl)ccc21)CO3` (single isomer, unassigned) [Example 4], in test [1] (72 hours), the EC50 (in general, the midpoint of the concentration-response curve) was 899 nM. Consider `COCC(=O)NS1(=O)=NC(=O)c2ccc3c(c2)N(C[C@@H]2CC[C@H]2[C@@H](OC)/C=C/CCC1)C[C@@]1(CCCc2cc(Cl)ccc21)CO3` (single isomer, unassigned) [Example 7], for which the IC50 (commonly the concentration needed to halve the response being measured) in test [2] stood at 1.2 nM. The EC50 in test [1] (72 hours) was 4800 nM. Take `CO[C@H]1/C=C/CCCS(=O)(NC(=O)CCn2ccnn2)=NC(=O)c2ccc3c(c2)N(C[C@@H]2CC[C@H]21)C[C@@]1(CCCc2cc(Cl)ccc21)CO3` (single isomer, unassigned) [Example 54]: the IC50 in test [2] amounted to 0.2 nM. The EC50 in test [1] (Homo sapiens, SK-BR-3, 72 h) was 3810 nM.

Consider `CCC(=O)NS1(=O)=NC(=O)c2ccc3c(c2)N(C[C@@H]2CC[C@H]2[C@@H](OC)/C=C/CC[C@H]1CC)C[C@@]1(CCCc2cc(Cl)ccc21)CO3` (single isomer, unassigned) [Example 65], for which the IC50 in test [2] came to 1.8 nM. In test [1] (72 hours), the EC50 came to 1970 nM. Take `CCC(=O)N[S@@]1(=O)=NC(=O)c2ccc3c(c2)N(C[C@@H]2CC[C@H]2[C@@H](OCCN2CCOCC2)/C=C/CCC1)C[C@@]1(CCCc2cc(Cl)ccc21)CO3` (single isomer, unassigned) [Example 67]: the IC50 in test [2] turned out to be 1.2 nM. The EC50 in test [1] (Homo sapiens, SK-BR-3, 72 h) came out at 1040 nM. `CC[C@@H]1CC/C=C/[C@H](OC)[C@@H]2CC[C@H]2CN2C[C@@]3(CCCc4cc(Cl)ccc43)COc3ccc(cc32)C(=O)N=S1(=O)NC(=O)CCc1ccnn1C` (single isomer, unassigned) [Example 71]: in test [2], the IC50 was found to be 0.7 nM. For the same compound, in test [1] (72 hours), the EC50 amounted to 1390 nM.

Turning to `CO[C@H]1/C=C/C[C@H](C)C[S@@](=O)(NC(=O)[C@H]2CCc3cnn(C)c3C2)=NC(=O)c2ccc3c(c2)N(C[C@@H]2CC[C@H]21)C[C@@]1(CCCc2cc(Cl)ccc21)CO3` (single isomer, unassigned) [Example 141], the IC50 in test [2] is 0.086 nM. The EC50 in test [1] (Homo sapiens, SK-BR-3, 72 h) came to 65.3 nM. Consider `CO[C@H]1/C=C/C[C@H](C)C[S@@](=O)(NC(=O)[C@H]2Cc3ccccc3CO2)=NC(=O)c2ccc3c(c2)N(C[C@@H]2CC[C@H]21)C[C@@]1(CCCc2cc(Cl)ccc21)CO3` (single isomer, unassigned) [Example 143], for which the IC50 in test [2] was 0.173 nM. Further, the EC50 in test [1] (Homo sapiens, SK-BR-3, 72 h) was determined as 219 nM.

As to `CO[C@H]1/C=C/C[C@H](C)C[S@@](=O)(NC(=O)N[C@@H]2C[C@H]2c2cnn(C)c2)=NC(=O)c2ccc3c(c2)N(C[C@@H]2CC[C@H]21)C[C@@]1(CCCc2cc(Cl)ccc21)CO3` (single isomer, unassigned) [Example 183], the IC50 in test [2] is 0.132 nM. Also, the half-maximal effective concentration (EC50) in test [1] (72 hours) stood at 195 nM.

Take `CO[C@H]1/C=C/C[C@H](C)C[S@@](=O)(NC(=O)N[C@H]2C[C@@H]2c2cnn(C)c2)=NC(=O)c2ccc3c(c2)N(C[C@@H]2CC[C@H]21)C[C@@]1(CCCc2cc(Cl)ccc21)CO3` (single isomer, unassigned) [Example 184]: the IC50 in test [2] stood at 0.108 nM. Moreover, the EC50 in test [1] (72 hours) is 47.2 nM. Consider `CO[C@H]1/C=C/C[C@H](C)C[S@@](=O)(NC(=O)N[C@H]2C[C@@H]2OC)=NC(=O)c2ccc3c(c2)N(C[C@@H]2CC[C@H]21)C[C@@]1(CCCc2cc(Cl)ccc21)CO3` (single isomer, unassigned) [Example 195], for which the IC50 in test [2] is 0.036 nM. Besides, the EC50 in test [1] (72 hours) is 29.6 nM. For `CO[C@H]1/C=C/C[C@H](C)C[S@@](=O)(NC(=O)N[C@@H]2C[C@H]2OC)=NC(=O)c2ccc3c(c2)N(C[C@@H]2CC[C@H]21)C[C@@]1(CCCc2cc(Cl)ccc21)CO3` (single isomer, unassigned) [Example 196], in that order: 0.04 nM and 99.2 nM.

Take `CO[C@H]1/C=C/C[C@H](C)C[S@@](=O)(NC(=O)N[C@@H]2C[C@H]2CC(F)F)=NC(=O)c2ccc3c(c2)N(C[C@@H]2CC[C@H]21)C[C@@]1(CCCc2cc(Cl)ccc21)CO3` (single isomer, unassigned) [Example 281]: the IC50 in test [2] was 0.154 nM. Besides, in test [1] (72 hours), the EC50 worked out at 184 nM. Take `CO[C@H]1/C=C/C[C@H](C)[C@@H](C)S(=O)(=O)NC(=O)c2ccc3c(c2)N(C[C@@H]2CC[C@H]21)C[C@@]1(CCCc2cc(Cl)ccc21)CO3` [Comparative Example 1, reference compound]: the EC50 in test [1] (72 hours) was found to be 2190 nM.

For the compound `CO[C@H]1/C=C/CCC[S@@](N)(=O)=NC(=O)c2ccc3c(c2)N(C[C@@H]2CC[C@H]21)C[C@@]1(CCCc2cc(Cl)ccc21)CO3` [Example 5], in test [1] (72 hours), the EC50 came out at 10000 nM.

For the compound `CCOC(=O)N[S@]1(=O)=NC(=O)c2ccc3c(c2)N(C[C@@H]2CC[C@H]2[C@@H](OC)/C=C/CCC1)C[C@@]1(CCCc2cc(Cl)ccc21)CO3` [Example 9], the EC50 in test [1] (72 hours) was determined as 7780 nM. Take `CCC(=O)N[S@@]1(=O)=NC(=O)c2ccc3c(c2)N(C[C@@H]2CC[C@H]2[C@@H](OC)CCCCC1)C[C@@]1(CCCc2cc(Cl)ccc21)CO3` [Example 11]: in test [1] (72 hours), the EC50 worked out at 10000 nM.

Regarding `CCNC(=O)N[S@@]1(=O)=NC(=O)c2ccc3c(c2)N(C[C@@H]2CC[C@H]2[C@@H](OC)CCCCC1)C[C@@]1(CCCc2cc(Cl)ccc21)CO3` [Example 13], the EC50 in test [1] (72 hours) amounted to 3270 nM. Still for that read-out and setting: to `CCNC(=O)N[S@@]1(=O)=NC(=O)c2ccc3c(c2)N(C[C@@H]2CC[C@H]2[C@@H](OC)CCCCC1)C[C@@]1(CCCc2cc(Cl)ccc21)CO3` [Example 14] belongs 356 nM. Same read-out and setting: to `CCC(=O)N[S@@]1(=O)=NC(=O)c2ccc3c(c2)N(C[C@@H]2CC[C@H]2[C@@H](OC)CCCCC1)C[C@@]1(CCCc2ccccc21)CO3` [Example 16] belongs 10000 nM. With `CCC(=O)N[S@@]1(=O)=NC(=O)c2ccc3c(c2)N(C[C@@H]2CC[C@H]2[C@@H](O)/C=C/CCC1)C[C@@]1(CCCc2cc(Cl)ccc21)CO3` [Example 62], the EC50 in test [1] (72 hours) stood at 2430 nM. The same measure, in the same setting: the same measure for `CCC(=O)N[S@]1(=O)=NC(=O)c2ccc3c(c2)N(C[C@@H]2CC[C@H]2[C@@H](O)/C=C/CCC1)C[C@@]1(CCCc2cc(Cl)ccc21)CO3` [Example 63]: 9710 nM. For the compound `CCC(=O)N[S@]1(=O)=NC(=O)c2ccc3c(c2)N(C[C@@H]2CC[C@H]2[C@@H](OC)/C=C/CCCC1)C[C@@]1(CCCc2cc(Cl)ccc21)CO3` [Example 69], the EC50 in test [1] (72 hours) is 7800 nM.

Take `CO[C@H]1/C=C/C[C@H](C)[C@@H](C)[S@@](=O)(NC(=O)c2cnn(C3COC3)c2)=NC(=O)c2ccc3c(c2)N(C[C@@H]2CC[C@H]21)C[C@@]1(CCCc2cc(Cl)ccc21)CO3` [Example 152]: in test [1] (72 hours), the EC50 is 55.7 nM. As to `COC1Cc2cc(C(=O)N[S@@]3(=O)=NC(=O)c4ccc5c(c4)N(C[C@@H]4CC[C@H]4[C@@H](OC)/C=C/C[C@H](C)C3)C[C@@]3(CCCc4cc(Cl)ccc43)CO5)cn2C1` (stereo partly drawn) [Example 205], the EC50 in test [1] (72 hours) turned out to be 58.9 nM.

`CO[C@H]1/C=C/C[C@H](C)[C@@H](C)[S@@](=O)(NC(=O)C(F)(F)F)=NC(=O)c2ccc3c(c2)N(C[C@@H]2CC[C@H]21)C[C@@]1(CCCc2cc(Cl)ccc21)CO3` [Example 370]: the EC50 in test [1] (Homo sapiens, SK-BR-3, 72 h) turned out to be 5800 nM. On the same count and under the same terms, the same measure for `CO[C@H]1/C=C/C[C@H](C)C[S@@](=O)(NC(=O)C2CC(OC(F)F)C2)=NC(=O)c2ccc3c(c2)N(C[C@@H]2CC[C@H]21)C[C@@]1(CCCc2cc(Cl)ccc21)CO3` (stereo partly drawn) [Example 431]: 233 nM.

For the origin of these results see patent US10703733B2, “MCL-1 inhibitors” (Gilead Sciences, Inc., priority 2018, dated 2020).
